{"source": "patent US20230022200A1", "about": "“DRUG THAT PREVENTS DIALYSIS SHIFT OR RENAL DEATH” (Toray Industries, Inc., priority 2019, published 2023)", "key": {"[1]": {"details": "cited from earlier work"}, "[2]": {"tested_on": "chronic renal failure patients with primary glomerular disease and nephrosclerosis as primary diseases", "details": "twice a day for 6 months, cited from earlier work"}, "[3]": {"tested_on": "chronic renal failure patients with primary glomerular disease and nephrosclerosis as primary diseases", "experiment": "CASSIOPEIR trial: time to dialysis shift or renal death, hazard ratio of drug and placebo by Cox proportional hazard model", "type": "in vivo, human", "method": "For the analysis, the full analysis set and Intention-To-Treat (ITT) defined in Nakamoto et al., BMC Nephrology were used, and the hazard ratio (HR) of the drug and placebo was calculated by the Cox proportional hazard model. A lower HR value indicates a higher effectiveness of the drug.\nA data set obtained in the CASSIOPEIR trial according to the protocol described in Nakamoto et al., BMC Nephrology was used. Summarizing the protocol of the CASSIOPEIR trial, the targets are chronic renal failure patients with primary glomerular disease and nephrosclerosis as primary diseases, and a BPS sustained-release tablet, TRK-100STP (the same preparation as Careload (trademark) LA Tablets 60 μg (Toray Industries, Inc.)), is administered at 120 μg or 240 μg as BPS per day in two divided doses, morning and evening. Further, this trial was a multicenter, randomized, placebo-controlled, double-blind comparative trial, and carried out in Japan, China, South Korea, Taiwan, Hong Kong, Malaysia, and Thailand.\nThe duration of drug administration was 2 to 4 years, and the number of patients underwent randomization was 892, and the trial was conducted in 160 sites. Further, the ITT population was the primary analysis target population. The primary endpoint was the time to occurrence of the renal composite endpoint defined by doubling of serum creatinine or end-stage renal disease. The guidelines (2013) of the Japanese Society for Dialysis Therapy were used as a reference to determine the time to shift to dialysis. Specifically, according to the policy that “even with adequate conservative treatment, progressive deterioration of renal function is observed, and the need arises when GFR<15 ml/min/1.73 m^2. However, the introduction of actual blood dialysis is determined by comprehensively judging the symptoms of renal failure, activity in daily life, and nutritional status, and a decision is made when these cannot be avoided except by dialysis therapy,” and finally based on the judgment of the investigator, the time to shift to dialysis and the time to reach renal death were determined. The term “dialysis” as used herein includes peritoneal dialysis, in addition to blood dialysis."}, "[4]": {"tested_on": "patients with chronic renal failure", "details": "cited from earlier work"}, "renal failure model rats": {"tested_on": "renal failure model rats", "details": "rat, in vivo; cited from earlier work"}, "[5]": {"tested_on": "chronic renal failure rat models", "details": "combined use with ARBs and ACEIs; cited from earlier work"}, "[6]": {"tested_on": "chronic renal failure patients with primary glomerular disease and nephrosclerosis as primary diseases", "details": "whole trial, serum creatinine 2.0 to 4.5 mg/dl at entry; 120 μg or 240 μg BPS administration group; cited from earlier work"}, "[7]": {"tested_on": "cats with spontaneous chronic kidney disease", "details": "in vivo; cited from earlier work"}}, "note": "Where two headings read alike, the source gives them in different places."}
{"smiles": "CC#CC[C@H](C)[C@H](O)/C=C/[C@@H]1[C@H]2c3cccc(CCCC(=O)[O-])c3O[C@H]2C[C@H]1O.[Na+]", "note": "[BPS-314d, sodium (+)-(1R,2R,3aS,8b S)-2,3,3a,8b-tetrahydro-2-hydroxy-1-[(E)-(3S,4S)-3-hydroxy-4-methyl-1-octen-6-ynyl]-1H-cyclopenta[b]benzofuran-5-butyrate]", "values": [{"measurement": "Cmax of BPS-314d in plasma relative to BPS", "setting": "[1]; when BPS is administered to a human", "result": "¼"}, {"measurement": "AUC of BPS-314d in plasma relative to BPS", "setting": "[1]; when BPS is administered", "result": "¼"}]}
{"smiles": "CC#CCC(C)[C@H](O)/C=C/[C@@H]1[C@H]2c3cccc(CCCC(=O)[O-])c3O[C@H]2C[C@H]1O.[Na+]", "note": "(stereo partly drawn) [BPS, Beraprost sodium]", "values": [{"measurement": "increase in serum creatinine level during the administration period compared to before the start of administration", "setting": "[2]; 120-μg group", "result": 1.069, "unit": "times"}, {"measurement": "increase in serum creatinine level during the administration period compared to before the start of administration", "setting": "[2]; 240-μg group", "result": 1.064, "unit": "times"}, {"measurement": "HR, time to dialysis shift", "setting": "[3]; 240 μg per day, ACEI used in combination (except patients who further used ARB), all subjects, P value 0.0994", "result": 0.60}, {"measurement": "HR, time to dialysis shift", "setting": "[3]; 240 μg per day, ACEI used in combination, Japanese patients, P value 0.0882", "result": 0.49}, {"measurement": "HR, time to dialysis shift", "setting": "[3]; 240 μg, ARB in combination, no ACEI, Japanese partial population, P value 0.3597", "result": 0.79}, {"measurement": "HR, time to dialysis shift", "setting": "[3]; 240 μg, ARB in combination, no ACEI, P value 0.5401", "result": 0.88}, {"measurement": "HR, dialysis shift", "setting": "[3]; Japanese patients, BMI less than 23, 240 μg, P value 0.0048", "result": 0.38}, {"measurement": "HR, dialysis shift", "setting": "[3]; Japanese patients, BMI less than 23 and serum albumin less than 3.8 g/dl", "result": 0.29}, {"measurement": "HR, dialysis shift", "setting": "[3]; Japanese patients, serum albumin less than 3.8 g/dl, 240-μg administration, P value 0.1567", "result": 0.50}, {"measurement": "HR, time to dialysis shift", "setting": "[3]; plasma BPS 50 pg/ml or more confirmed, eGFR 15 or more and less than 45 ml/min/1.73 m^2 (CKD stages 3b and 4), P value 0.0368", "result": 0.59}, {"measurement": "HR, time to dialysis shift", "setting": "[3]; plasma BPS 50 pg/ml or more confirmed, serum creatinine less than 3 mg/dl, P value 0.0251", "result": 0.46}, {"measurement": "Cmax and AUC in renal damage patients compared to healthy subjects", "setting": "[1]; Shimamura et al.", "result": "elevated"}, {"measurement": "half-life in blood", "setting": "[1]; in vivo", "result": "about 1 hour"}, {"measurement": "slope of the time-varying straight line of the reciprocal of the serum creatinine level", "setting": "[4]; 20 μg per dose three times a day for 6 months", "result": "becomes gentle"}, {"measurement": "shift to dialysis", "setting": "[4]; serum creatinine 1.9 mg/dl or less before start, 20 μg three times a day", "result": "did not shift to dialysis for up to 54 months"}, {"measurement": "effect of BPS", "setting": "[4]; serum creatinine 2.2 mg/dl or more (within the 1.9 to 2.8 mg/dl group)", "result": "not observed"}, {"measurement": "time to shift to dialysis", "setting": "[4]; serum creatinine 2.8 mg/dl or more before start, 20 μg three times a day", "result": "≤ 24", "unit": "months"}, {"measurement": "renal tissue damage", "setting": "renal failure model rats", "result": "reduces renal tissue damage"}, {"measurement": "serum creatinine levels", "setting": "renal failure model rats", "result": "suppresses the increase in serum creatinine levels"}, {"measurement": "effect of angiotensin inhibitors to suppress the progression of renal damage (increase in serum creatinine levels)", "setting": "[5]", "result": "enhances the effect of the angiotensin inhibitors"}, {"measurement": "renal composite endpoints and time to shift to dialysis", "setting": "[6]", "result": "not minimized at all"}, {"measurement": "renal function", "setting": "[7]", "result": "suppresses the decline in renal function"}]}
